In patent US8188306B2, “Heat shock protein 90 inhibitors” (University of Kansas, priority 2004, dated 2012):

Molecular target: T1, Recombinant yeast Hsp90 (Saccharomyces cerevisiae, UniProt P02829)
T1 construct: made in house
Test: Inhibition of Hsp90 ATPase activity, production of inorganic phosphate
Type: biochemical
Settings: incubated with ATP
Method: The present invention also evaluated the biological activity of some of the RAD amides prepared in accordance with the present invention. Recombinant yeast Hsp90 was overexpressed and purified according to the procedure of Buchner. Richter, et al., Coordinated ATP Hydrolysis by the Hsp90 Dimer. […] The yeast was a kind gift from Boris Kornikaeve at the University of Kansas Biomedical Research Service Laboratory.
The pure protein was incubated with ATP and one of three RAD amides (the quinone, the 1,4-hydroxy, or the 1,4-methoxy), and the production of inorganic phosphate was determined.

T1 sequence (P02829 whole entry): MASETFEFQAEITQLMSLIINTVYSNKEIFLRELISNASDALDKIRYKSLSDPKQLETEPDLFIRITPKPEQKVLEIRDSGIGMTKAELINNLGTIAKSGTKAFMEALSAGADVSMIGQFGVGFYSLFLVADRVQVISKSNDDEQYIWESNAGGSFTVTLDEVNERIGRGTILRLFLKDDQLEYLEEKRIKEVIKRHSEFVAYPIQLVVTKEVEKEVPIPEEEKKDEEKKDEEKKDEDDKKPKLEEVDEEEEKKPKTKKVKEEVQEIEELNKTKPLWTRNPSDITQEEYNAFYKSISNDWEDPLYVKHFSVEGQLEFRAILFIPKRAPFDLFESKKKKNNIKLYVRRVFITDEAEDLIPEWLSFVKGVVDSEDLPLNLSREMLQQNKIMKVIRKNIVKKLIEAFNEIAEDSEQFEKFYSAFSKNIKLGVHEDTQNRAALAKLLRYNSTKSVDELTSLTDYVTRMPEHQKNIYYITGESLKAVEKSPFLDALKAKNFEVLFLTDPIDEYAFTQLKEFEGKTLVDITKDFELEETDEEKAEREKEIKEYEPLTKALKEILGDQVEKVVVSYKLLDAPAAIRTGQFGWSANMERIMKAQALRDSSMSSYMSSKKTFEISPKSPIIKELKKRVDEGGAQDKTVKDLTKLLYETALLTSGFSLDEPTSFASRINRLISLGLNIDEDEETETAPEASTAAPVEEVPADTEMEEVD

SMILES: COC(=O)c1c(O)cc(O)c(Cl)c1CCC(=O)NC1=CC(=O)C(OC)=CC1=O [Quinone]
- IC50 (IC50 (μm), table): 5.9 µM
- IC50 (IC50 / inhibitory activity): 1.8 µM
